Reference: the NIST ThermoML archive (doi:10.1016/j.jct.2008.10.002)

Legend:
[1] = xn = mol fraction of the nth substance listed; details: 101.3 kPa, Liquid, Vibrating tube method
[2] = molar heat capacity at constant pressure; xn = mol fraction of the nth substance listed; details: 101.3 kPa, Liquid, Small sample (50 mg) DSC
[3] = excess molar enthalpy (molar enthalpy of mixing); xn = mol fraction of the nth substance listed; details: 303.15 K, 101.3 kPa, Liquid

CCCCn1cc[n+](C)c1.COS(=O)(=O)[O-] [1-butyl-3-methylimidazolium methyl sulfate] + O
Details | mass density, [1] [kg/m3] | molar heat capacity at constant pressure, [2] [J/K/mol]
293.15 K, x1 = 0.0213 | 1041.7 | 84.8
293.15 K, x1 = 0.0489 | 1081 | 95.3
293.15 K, x1 = 0.0996 | 1123.8 | 112
293.15 K, x1 = 0.1975 | 1162.3 | 143.8
293.15 K, x1 = 0.2938 | 1180 | 175.2
293.15 K, x1 = 0.3948 | 1190.5 | 207.8
293.15 K, x1 = 0.4809 | 1196.3 | 235.7
293.15 K, x1 = 0.5724 | 1200.7 | 265.9
293.15 K, x1 = 0.6552 | 1203.6 | 293.4
293.15 K, x1 = 0.8002 | 1207.3 | 343.5
293.15 K, x1 = 0.8199 | 1207.7 | –
293.15 K, x1 = 0.9554 | 1210 | 397.9
298.15 K, x1 = 0.0213 | 1039.7 | 84.8
298.15 K, x1 = 0.0489 | 1078.3 | 95.6
298.15 K, x1 = 0.0996 | 1120.5 | 112.6
298.15 K, x1 = 0.1975 | 1158.8 | 144.9
298.15 K, x1 = 0.2938 | 1176.5 | 176.5
298.15 K, x1 = 0.3948 | 1187 | 209.3
298.15 K, x1 = 0.4809 | 1192.9 | 237.3
298.15 K, x1 = 0.5724 | 1197.3 | 267.7
298.15 K, x1 = 0.6552 | 1200.3 | 295.3
298.15 K, x1 = 0.8002 | 1204 | 345.5
298.15 K, x1 = 0.8199 | 1204.3 | –
298.15 K, x1 = 0.9554 | 1206.7 | 400.1
303.15 K, x1 = 0.0213 | 1037.5 | 84.9
303.15 K, x1 = 0.0489 | 1075.4 | 96
303.15 K, x1 = 0.0996 | 1117.1 | 113.3
303.15 K, x1 = 0.1975 | 1155.2 | 146.1
303.15 K, x1 = 0.2938 | 1173 | 177.8
303.15 K, x1 = 0.3948 | 1183.6 | 210.8
303.15 K, x1 = 0.4809 | 1189.5 | 239
303.15 K, x1 = 0.5724 | 1193.9 | 269.5
303.15 K, x1 = 0.6552 | 1196.9 | 297.3
303.15 K, x1 = 0.8002 | 1200.7 | 347.6
303.15 K, x1 = 0.8199 | 1201 | –
303.15 K, x1 = 0.9554 | 1203.4 | 402.3
308.15 K, x1 = 0.0213 | 1035.2 | 84.9
308.15 K, x1 = 0.0489 | 1072.4 | 96.2
308.15 K, x1 = 0.0996 | 1113.6 | 113.9
308.15 K, x1 = 0.1975 | 1151.7 | 147.1
308.15 K, x1 = 0.2938 | 1169.5 | 179
308.15 K, x1 = 0.3948 | 1180.2 | 212.2
308.15 K, x1 = 0.4809 | 1186.1 | 240.5
308.15 K, x1 = 0.5724 | 1190.6 | 271.2
308.15 K, x1 = 0.6552 | 1193.6 | 299.2
308.15 K, x1 = 0.8002 | 1197.4 | 349.7
308.15 K, x1 = 0.8199 | 1197.7 | –
308.15 K, x1 = 0.9554 | 1200.1 | 404.5
313.15 K, x1 = 0.0213 | 1032.7 | 84.9
313.15 K, x1 = 0.0489 | 1069.3 | 96.5
313.15 K, x1 = 0.0996 | 1110.1 | 114.5
313.15 K, x1 = 0.1975 | 1148 | 148.1
313.15 K, x1 = 0.2938 | 1166 | 180.3
313.15 K, x1 = 0.3948 | 1176.7 | 213.6
313.15 K, x1 = 0.4809 | 1182.7 | 242.1
313.15 K, x1 = 0.5724 | 1187.2 | 272.9
313.15 K, x1 = 0.6552 | 1190.3 | 301.2
313.15 K, x1 = 0.8002 | 1194.1 | 351.7
313.15 K, x1 = 0.8199 | 1194.4 | –
313.15 K, x1 = 0.9554 | 1196.8 | 406.7
318.15 K, x1 = 0.0213 | 1030.1 | 85.1
318.15 K, x1 = 0.0489 | 1066.2 | 96.8
318.15 K, x1 = 0.0996 | 1106.6 | 115.2
318.15 K, x1 = 0.1975 | 1144.4 | 149.1
318.15 K, x1 = 0.2938 | 1162.5 | 181.6
318.15 K, x1 = 0.3948 | 1173.3 | 215
318.15 K, x1 = 0.4809 | 1179.3 | 243.7
318.15 K, x1 = 0.5724 | 1183.9 | 274.6
318.15 K, x1 = 0.6552 | 1186.9 | 303.1
318.15 K, x1 = 0.8002 | 1190.8 | 353.8
318.15 K, x1 = 0.8199 | 1191.1 | –
318.15 K, x1 = 0.9554 | 1193.6 | 408.9

[3]
Details | excess molar enthalpy [kcal/mol]
x1 = 0.0506 | -0.0676
x1 = 0.1003 | -0.0966
x1 = 0.1461 | -0.115
x1 = 0.2018 | -0.125
x1 = 0.299 | -0.128
x1 = 0.4021 | -0.117
x1 = 0.5447 | -0.0987
x1 = 0.6795 | -0.0755
x1 = 0.8434 | -0.0413

CCCCn1cc[n+](C)c1.O=S(=O)([O-])C(F)(F)F [1-butyl-3-methylimidazolium trifluoromethanesulfonate] + O
Details | mass density, [1] [kg/m3] | molar heat capacity at constant pressure, [2] [J/K/mol]
293.15 K, x1 = 0.0496 | 1119.8 | 98.5
293.15 K, x1 = 0.1012 | 1176.7 | –
293.15 K, x1 = 0.1415 | 1202.8 | 131.9
293.15 K, x1 = 0.197 | 1227.4 | –
293.15 K, x1 = 0.2965 | 1252.5 | –
293.15 K, x1 = 0.3369 | 1259.7 | 200.1
293.15 K, x1 = 0.3873 | 1266.8 | –
293.15 K, x1 = 0.4868 | 1277.3 | 250
293.15 K, x1 = 0.5637 | 1283.2 | 274.4
293.15 K, x1 = 0.6636 | 1289.1 | 307.4
293.15 K, x1 = 0.7124 | 1291.6 | 322.5
293.15 K, x1 = 0.796 | 1295.2 | 350.7
293.15 K, x1 = 0.9017 | 1298.8 | 387.2
293.15 K, x1 = 0.9456 | 1300.1 | –
298.15 K, x1 = 0.0496 | 1116.9 | 98.7
298.15 K, x1 = 0.1012 | 1173.2 | –
298.15 K, x1 = 0.1415 | 1199 | 132.6
298.15 K, x1 = 0.197 | 1223.4 | –
298.15 K, x1 = 0.2965 | 1248.4 | –
298.15 K, x1 = 0.3369 | 1255.6 | 201.3
298.15 K, x1 = 0.3873 | 1262.7 | –
298.15 K, x1 = 0.4868 | 1273.2 | 251.5
298.15 K, x1 = 0.5637 | 1279.1 | 276.1
298.15 K, x1 = 0.6636 | 1285.1 | 309.4
298.15 K, x1 = 0.7124 | 1287.6 | 324.4
298.15 K, x1 = 0.796 | 1291.2 | 352.9
298.15 K, x1 = 0.9017 | 1294.8 | 389.4
298.15 K, x1 = 0.9456 | 1296.1 | –
303.15 K, x1 = 0.0496 | 1113.8 | 98.9
303.15 K, x1 = 0.1012 | 1169.5 | –
303.15 K, x1 = 0.1415 | 1195.1 | 133.3
303.15 K, x1 = 0.197 | 1219.3 | –
303.15 K, x1 = 0.2965 | 1244.3 | –
303.15 K, x1 = 0.3369 | 1251.5 | 202.7
303.15 K, x1 = 0.3873 | 1258.6 | –
303.15 K, x1 = 0.4868 | 1269.1 | 253.2
303.15 K, x1 = 0.5637 | 1275.1 | 277.8
303.15 K, x1 = 0.6636 | 1281.1 | 311.5
303.15 K, x1 = 0.7124 | 1283.6 | 326.4
303.15 K, x1 = 0.796 | 1287.2 | 355.2
303.15 K, x1 = 0.9017 | 1290.9 | 391.8
303.15 K, x1 = 0.9456 | 1292.2 | –
308.15 K, x1 = 0.0496 | 1110.6 | 99.1
308.15 K, x1 = 0.1012 | 1165.7 | –
308.15 K, x1 = 0.1415 | 1191.2 | 134
308.15 K, x1 = 0.197 | 1215.3 | –
308.15 K, x1 = 0.2965 | 1240.2 | –
308.15 K, x1 = 0.3369 | 1247.4 | 204.1
308.15 K, x1 = 0.3873 | 1254.5 | –
308.15 K, x1 = 0.4868 | 1265.1 | 254.9
308.15 K, x1 = 0.5637 | 1271 | 279.7
308.15 K, x1 = 0.6636 | 1277.1 | 313.7
308.15 K, x1 = 0.7124 | 1279.6 | 328.5
308.15 K, x1 = 0.796 | 1283.2 | 357.6
308.15 K, x1 = 0.9017 | 1286.9 | 394.4
308.15 K, x1 = 0.9456 | 1288.2 | –
313.15 K, x1 = 0.0496 | 1107.3 | 99.4
313.15 K, x1 = 0.1012 | 1161.9 | –
313.15 K, x1 = 0.1415 | 1187.1 | 134.8
313.15 K, x1 = 0.197 | 1211.2 | –
313.15 K, x1 = 0.2965 | 1236 | –
313.15 K, x1 = 0.3369 | 1243.3 | 205.5
313.15 K, x1 = 0.3873 | 1250.4 | –
313.15 K, x1 = 0.4868 | 1261 | 256.7
313.15 K, x1 = 0.5637 | 1267 | 281.7
313.15 K, x1 = 0.6636 | 1273.1 | 316.1
313.15 K, x1 = 0.7124 | 1275.6 | 330.7
313.15 K, x1 = 0.796 | 1279.2 | 360.2
313.15 K, x1 = 0.9017 | 1283 | 397
313.15 K, x1 = 0.9456 | 1284.3 | –
318.15 K, x1 = 0.0496 | 1103.9 | 99.7
318.15 K, x1 = 0.1012 | 1158 | –
318.15 K, x1 = 0.1415 | 1183.1 | 135.7
318.15 K, x1 = 0.197 | 1207 | –
318.15 K, x1 = 0.2965 | 1231.9 | –
318.15 K, x1 = 0.3369 | 1239.1 | 207.1
318.15 K, x1 = 0.3873 | 1246.3 | –
318.15 K, x1 = 0.4868 | 1256.9 | 258.7
318.15 K, x1 = 0.5637 | 1263 | 283.7
318.15 K, x1 = 0.6636 | 1269.1 | 318.6
318.15 K, x1 = 0.7124 | 1271.6 | 333.1
318.15 K, x1 = 0.796 | 1275.3 | 362.9
318.15 K, x1 = 0.9017 | 1279 | 399.9
318.15 K, x1 = 0.9456 | 1280.3 | –

[3]
Details | excess molar enthalpy [kcal/mol]
x1 = 0.1007 | 0.157
x1 = 0.1989 | 0.257
x1 = 0.2954 | 0.312
x1 = 0.3944 | 0.332
x1 = 0.4985 | 0.317
x1 = 0.5757 | 0.293
x1 = 0.6624 | 0.245
x1 = 0.8201 | 0.136
